Literature values, collected in patent US7847105B2, “Methods and compounds for preparing CC-1065 analogs” (Medarex, Inc., priority 2005, dated 2010).

Tests used:
[1] = both in vitro and in experimental animals
experimental animals = conditions: reason why it cannot be used in humans

For CC-1065, the “antitumor and antimicrobial activity” value [1] is given as “potent antitumor and antimicrobial activity” and the “toxicity in experimental animals” value (experimental animals) is given as “causes delayed death”.
